From patent US20260285859A1, “BI-CYCLIC PYRIMIDINE COMPOUNDS, METHODS AND USES THEREOF” (Zeno Management, Inc., priority 2023, published 2026)

Columns and labels:
WEE1 = WEE1 (Homo sapiens, UniProt P30291); assay: LanthaScreen Eu Kinase Binding Assay, WEE1
Method: (§1) Binding of the tracer to the kinase is detected using a europium-labeled anti-GST antibody, which binds to the fused tag on the kinase protein. […] Inhibitor binding to the kinase competes with tracer binding, resulting in loss of FRET from the donor/acceptor pairs.
(§2) Kinase/Antibody Mixtures and Tracer are diluted to a 2× and 4× working concentration, respectively in this same buffer. […] 0% displacement (no known inhibitor) and 100% displacement (highest concentration of known inhibitor) controls were included on each plate for maximum and minimum Emission Ratio determination, respectively. Dasatinib was used for both PKMYT1 and WEE1 as the known inhibitor.
(§3) IC50 determination was performed using a non-linear regression, variable slope (four parameter), inhibitor v. response equation (Prism 9.0).

PKMYT1 = target: T1, PKMYT1 (Homo sapiens, UniProt Q99640); assay: LanthaScreen Eu Kinase Binding Assay, PKMYT1
T1 sequence (Q99640 1-499): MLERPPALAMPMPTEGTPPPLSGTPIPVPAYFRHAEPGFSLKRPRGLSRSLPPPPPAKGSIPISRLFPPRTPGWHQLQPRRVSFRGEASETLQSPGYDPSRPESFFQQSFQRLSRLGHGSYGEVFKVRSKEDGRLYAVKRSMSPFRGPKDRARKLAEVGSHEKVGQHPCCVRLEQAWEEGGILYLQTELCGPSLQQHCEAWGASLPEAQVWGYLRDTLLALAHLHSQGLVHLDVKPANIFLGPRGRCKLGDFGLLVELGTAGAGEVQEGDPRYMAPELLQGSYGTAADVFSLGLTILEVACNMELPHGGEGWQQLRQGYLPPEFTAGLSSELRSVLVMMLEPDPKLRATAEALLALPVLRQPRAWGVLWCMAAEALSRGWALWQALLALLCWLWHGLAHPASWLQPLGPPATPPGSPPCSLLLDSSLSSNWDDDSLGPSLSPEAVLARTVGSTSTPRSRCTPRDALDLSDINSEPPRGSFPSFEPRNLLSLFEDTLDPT
Method: as §1, §2, §3

Chain of WEE1 (P30291 whole entry): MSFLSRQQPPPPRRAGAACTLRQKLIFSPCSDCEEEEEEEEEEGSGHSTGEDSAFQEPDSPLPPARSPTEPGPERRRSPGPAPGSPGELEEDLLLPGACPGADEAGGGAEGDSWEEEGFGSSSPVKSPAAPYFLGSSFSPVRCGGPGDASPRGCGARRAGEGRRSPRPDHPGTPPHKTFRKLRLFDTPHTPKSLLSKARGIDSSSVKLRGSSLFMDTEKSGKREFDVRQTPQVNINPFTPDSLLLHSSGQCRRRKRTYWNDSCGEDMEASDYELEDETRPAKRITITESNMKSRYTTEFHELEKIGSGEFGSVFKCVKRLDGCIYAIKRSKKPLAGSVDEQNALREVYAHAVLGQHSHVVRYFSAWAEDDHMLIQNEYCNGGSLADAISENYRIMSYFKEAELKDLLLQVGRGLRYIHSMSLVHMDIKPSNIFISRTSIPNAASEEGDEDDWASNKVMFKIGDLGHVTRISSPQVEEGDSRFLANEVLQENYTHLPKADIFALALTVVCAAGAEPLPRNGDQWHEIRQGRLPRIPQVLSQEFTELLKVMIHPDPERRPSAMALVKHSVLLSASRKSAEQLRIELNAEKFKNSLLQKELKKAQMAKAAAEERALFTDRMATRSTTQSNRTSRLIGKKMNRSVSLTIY

Row | Compound | IC50 (WEE1) [nM] | IC50 (PKMYT1) [nM]
1 | Cc1ccc(O)c(C)c1-c1nc(N2CC[C@@](C)(F)C2)cc2c(N)ncnc12 (single isomer, unassigned) [Compound 54-B] | 100 to 1000 | < 10
2 | Cc1ccc(O)c(C)c1-c1nc(C2=CCOCC2)cc2c(N)ncnc12 (single isomer, unassigned) [Compound 56-B] | 100 to 1000 | < 10
3 | Cc1ccc(O)c(C)c1-c1nc(-c2ccncc2)cc2c(N)ncnc12 [Compound 32-B, (S)-3-(4-amino-6-(pyridin-4-yl)pyrido[3,4-d]pyrimidin-8-yl)-2,4-dimethylphenol] | 100 to 1000 | < 10
4 | Cc1ccc(O)c(C)c1-c1cc(C2=CCOCC2)nc2c(N)ncnc12 [Compound 71-B, (R)-3-(4-amino-6-(3,6-dihydro-2H-pyran-4-yl)pyrido[3,2-d]pyrimidin-8-yl)-2,4-dimethylphenol] | 100 to 1000 | < 10
5 | Cc1ccc(O)c(C)c1-c1cc(NC2CC2)nc2c(N)ncnc12 [Compound 72-B, (R)-3-(4-amino-6-(cyclopropylamino)pyrido[3,2-d]pyrimidin-8-yl)-2,4-dimethylphenol] | > 1000 | < 10
6 | Cc1ccc(O)c(C)c1-c1cc(N(C)C)nc2c(N)ncnc12 [Compound 73-B, (R)-3-(4-Amino-6-(dimethylamino)pyrido[3,2-d]pyrimidin-8-yl)-2,4-dimethylphenol] | > 1000 | 10 to 100
7 | Cc1cc(-c2c(C)ccc(O)c2C)c2ncnc(N)c2n1 [Compound 74-B, (R)-3-(4-amino-6-methylpyrido[3,2-d]pyrimidin-8-yl)-2,4-dimethylphenol] | > 1000 | 10 to 100
8 | Cc1ccc(O)c(C)c1-c1cc(C2CC2)nc2c(N)ncnc12 [Compound 76-B, (R)-3-(4-amino-6-cyclopropylpyrido[3,2-d]pyrimidin-8-yl)-2,4-dimethylphenol] | > 1000 | < 10

Continued, values first:

Row | IC50 (WEE1) [nM] | IC50 (PKMYT1) [nM] | Compound
9 | 100 to 1000 | < 10 | Cc1ccc(O)c(C)c1-c1nc(N2CC[C@](C)(F)C2)cc2c(N)ncnc12 (single isomer, unassigned) [Compound 55-B]
10 | > 1000 | < 10 | C=C(C)c1cc2c(N)ncnc2c(-c2c(C)ccc(O)c2C)n1 (single isomer, unassigned) [Compound 57-B]
11 | 100 to 1000 | < 10 | Cc1ccc(O)c(C)c1-c1nc(N2CC[C@@H](F)C2)cc2c(N)ncnc12 (single isomer, unassigned) [Compound 58-B]
12 | 100 to 1000 | < 10 | Cc1ccc(O)c(C)c1-c1nc(N2CC[C@H](F)C2)cc2c(N)ncnc12 (single isomer, unassigned) [Compound 59-B]
13 | > 1000 | 10 to 100 | Cc1cc2c(N)ncnc2c(-c2c(C)ccc(O)c2C)n1 [Compound 17-B, (S)-3-(4-Amino-6-methylpyrido[3,4-d]pyrimidin-8-yl)-2,4-dimethylphenol]
14 | 100 to 1000 | < 10 | [2H]C([2H])([2H])N(c1cc2c(N)ncnc2c(-c2c(C)ccc(O)c2C)n1)C1CC1 [Compound 60-B, (S)-3-(4-amino-6-(cyclopropyl(methyl-d3)amino)pyrido[3,4-d]pyrimidin-8-yl)-2,4-dimethylphenol]
15 | > 1000 | < 10 | Cc1ccc(O)c(C)c1-c1nc(N(C)[C@H]2[C@@H]3COC[C@@H]32)cc2c(N)ncnc12 [Compound 61-B, 3-((S)-6-(((1R,5S,6r)-3-oxabicyclo[3.1.0]hexan-6-yl)(methyl)amino)-4-aminopyrido[3,4-d]pyrimidin-8-yl)-2,4-dimethylphenol]
16 | > 1000 | < 10 | CO[C@H]1C[C@@H](N(C)c2cc3c(N)ncnc3c(-c3c(C)ccc(O)c3C)n2)C1 [Compound 62-B, 3-((S)-4-amino-6-(((1s,3R)-3-methoxycyclobutyl)(methyl)amino)pyrido[3,4-d]pyrimidin-8-yl)-2,4-dimethylphenol]
17 | > 1000 | < 10 | CO[C@H]1C[C@H](N(C)c2cc3c(N)ncnc3c(-c3c(C)ccc(O)c3C)n2)C1 [Compound 62-D, 3-((S)-4-amino-6-(((1r,3S)-3-methoxycyclobutyl)(methyl)amino)pyrido[3,4-d]pyrimidin-8-yl)-2,4-dimethylphenol]
18 | > 1000 | < 10 | [2H]C([2H])([2H])N(c1cc2c(N)ncnc2c(-c2c(C)ccc(O)c2C)n1)[C@H]1[C@@H]2COC[C@@H]21 [Compound 63-B, 3-((S)-6-(((1R,5S,6r)-3-oxabicyclo[3.1.0]hexan-6-yl)(methyl-d3)amino)-4-aminopyrido[3,4-d]pyrimidin-8-yl)-2,4-dimethylphenol]
19 | > 1000 | 10 to 100 | Cc1ccc(O)c(C)c1-c1cc(N(C)C2CC2)nc2c(N)ncnc12 [Compound 75-B, (R)-3-(4-amino-6-(cyclopropyl(methyl)amino)pyrido[3,2-d]pyrimidin-8-yl)-2,4-dimethylphenol]
